This note sets out measurements from ChEMBL document CHEMBL1158929, “Tolytoxin and new scytophycins from three species of Scytonema” (J Nat Prod, 1990).

The subject of experiment [1] is KB. In words: Cytotoxicity against human KB cells. In kind it is functional, cell-based.
Experiment [2] concerns Aspergillus oryzae. In words: Antifungal activity against Aspergillus oryzae by agar diffusion assay. In kind it is functional, organism-based. In general terms: A growth-free zone around the sample is the usual read-out of agar diffusion tests.
Experiment [3] concerns Candida albicans. In words: Antifungal activity against Candida albicans by agar diffusion assay. In kind it is functional, organism-based.
Experiment [4] concerns Penicillium chrysogenum. In words: Antifungal activity against Penicillium notatum by agar diffusion assay. It is filed as functional, organism-based.
The subject of experiment [5] is Saccharomyces cerevisiae. In words: Antifungal activity against Saccharomyces cerevisiae by agar diffusion assay. In kind it is functional, organism-based.
The subject of experiment [6] is LoVo. Put plainly: Cytotoxicity against human LoVo cells. It is filed as functional.

Each structure is given as a SMILES string. Values after ≈ are worked out from the molar mass of the structure shown. Active and inactive are the calls of the source. The calls are words filed in the database; no cut-off is given here.

A word on the IC50: it is the point on the concentration scale where inhibition reaches its midpoint. Read a low IC50 as greater potency.

Consider `CO[C@H]([C@H](C)/C=C/N(C)C=O)[C@@H](C)C(=O)CC[C@H](C)[C@H](O)[C@H](C)[C@H]1OC(=O)/C=C/C(C)=C/C[C@H](O)C[C@@H]2C=CC[C@@H](C[C@H](OC)[C@@H](C)[C@@H](OC)C[C@@H](O)[C@@H]1C)O2`, for which 1 ng/mL (≈ 1.26 nM) corresponded to half-maximal inhibition in experiment [1] (IC50). Moreover, the outcome in experiment [2], in experiment [3], in experiment [4] and in experiment [5] was Active.

In experiment [1], `CO[C@H]([C@H](C)/C=C/N(C)C=O)[C@@H](C)C(=O)CC[C@H](C)[C@H](O)[C@H](C)[C@H]1OC(=O)/C=C/C(C)=C/[C@H](O)[C@H](OC)C[C@@H]2C=CC[C@@H](C[C@H](OC)[C@@H](CO)[C@@H](OC)C[C@@H](OC)[C@@H]1C)O2` displayed an IC50 of 1 ng/mL (≈ 1.17 nM). Besides, the result in experiment [2], in experiment [3], in experiment [4] and in experiment [5] was Active.

With `CO[C@H]([C@H](C)/C=C/N(C)C=O)[C@@H](C)C(=O)CC[C@H](C)[C@H](O)[C@H](C)[C@H]1OC(=O)/C=C/C(C)=C/[C@H](O)[C@H](O)C[C@@H]2C=CC[C@@H](C[C@H](OC)[C@@]3(CO3)[C@@H](OC)C[C@@H](OC)[C@@H]1C)O2` [6-HYDROXYSCYTOPHYCIN B], the IC50 in experiment [1] is 1 ng/mL (≈ 1.2 nM). For the same compound, the outcome in experiment [2], in experiment [3], in experiment [4] and in experiment [5] was Active.

Consider `CO[C@H]([C@H](C)/C=C/N(C)C=O)[C@@H](C)C(O)CC[C@H](C)[C@H](O)[C@H](C)[C@H]1OC(=O)/C=C/C(C)=C/C[C@H](O)C[C@@H]2C=CC[C@@H](C[C@H](OC)[C@@]3(CO3)[C@@H](OC)C[C@@H](OC)[C@@H]1C)O2` (stereo partly specified) [SCYTOPHYCIN A], for which the IC50 in experiment [1] turned out to be 1 ng/mL (≈ 1.22 nM).

Take `CO[C@H]([C@H](C)/C=C/N(C)C=O)[C@@H](C)C(=O)CC[C@H](C)[C@H](O)[C@H](C)[C@H]1OC(=O)/C=C/C(C)=C/C[C@H](O)C[C@@H]2C=CC[C@@H](C[C@H](OC)[C@@]3(CO3)[C@@H](OC)C[C@@H](OC)[C@@H]1C)O2` [SCYTOPHYCIN B]: in experiment [1], the IC50 came out at 1 ng/mL (≈ 1.22 nM).

For `CO[C@H]([C@H](C)/C=C/N(C)C=O)[C@@H](C)C(=O)CC[C@H](C)[C@H](O)[C@H](C)[C@H]1OC(=O)/C=C/C(C)=C/C[C@H](O)C[C@@H]2C=CC[C@@H](C[C@H](OC)[C@@H](C)[C@@H](OC)C[C@@H](OC)[C@@H]1C)O2` [SCYTOPHYCIN C], inhibition in experiment [1] was half-maximal at 10 ng/mL (≈ 12.4 nM) (IC50).

Regarding `CO[C@H]([C@H](C)/C=C/N(C)C=O)[C@@H](C)C(=O)CC[C@H](C)[C@H](O)[C@H](C)[C@H]1OC(=O)/C=C/C(C)=C/C[C@H](O)C[C@@H]2C=CC[C@@H](C[C@H](OC)[C@](C)(O)[C@@H](OC)C[C@@H](OC)[C@@H]1C)O2` [SCYTOPHYCIN D], half-maximal inhibition in experiment [1] (IC50) required 10 ng/mL (≈ 12.2 nM).

`CO[C@H]([C@H](C)/C=C/N(C)C=O)[C@@H](C)C(=O)CC[C@H](C)[C@H](O)[C@H](C)[C@H]1OC(=O)/C=C/C(C)=C/C[C@H](O)C[C@@H]2C=CC[C@@H](C[C@H](OC)[C@@H](CO)[C@@H](OC)C[C@@H](OC)[C@@H]1C)O2` [SCYTOPHYCIN E] showed an IC50 in experiment [1] of 10 ng/mL (≈ 12.2 nM). In experiment [6], this compound displayed an MIC of 10 ng/mL (≈ 12.2 nM).

On to `CO[C@H]([C@H](C)/C=C/N(C)C=O)[C@@H](C)C(=O)CC[C@H](C)[C@H](O)[C@H](C)[C@H]1OC(=O)/C=C/C(C)=C/[C@H](O)[C@H](OC)C[C@@H]2C=CC[C@@H](C[C@H](OC)[C@@]3(CO3)[C@@H](OC)C[C@@H](OC)[C@@H]1C)O2` [TOLYTOXIN], for which inhibition in experiment [1] was half-maximal at 1 ng/mL (≈ 1.18 nM) (IC50). For the same compound, the result in experiment [2], in experiment [3], in experiment [4] and in experiment [5] was Active.
